# Experimental data taken from patent US20120034613A1, “Apparatus and Method for Testing Relationships Between Gene Expression and Physical Appearance of Skin” (NSE Products, Inc., priority 2010, published 2012).
# Test system: facial skin
# Experiment: Cutometer measurement of extensibility of the skin, 12 week clinical study
# Assay type: in vivo, human
# Details: for Cutometer Extensibility Mean: Baseline mean 1.15
# From the text: A single cutometer measurement was taken on the right side of the subject's face, in line with the corner of the eye and the edge of the nostril, to measure the extensibility of the skin. All clinical and corneometer measurements and evaluations were taken at baseline, week 1 (visit 2), week 4 (visit 3), week 8 (visit 4) and week 12 (visit 5). Ultrasound and cutometer measurements and evaluations were taken at baseline, week 4 (visit 3), week 8 (visit 4) and week 12 (visit 5). Completed patient's diaries were reviewed for compliance at each visit. Mean clinical grading and instrumentation scores at each visit were statistically compared to baseline scores using paired t-test. Changes from baseline were considered significant at the p≦0.05 level. Mean percent change from baseline and incidence of positive responders were calculated for all attributes. Comparisons, based on the average from baseline, were made between the test materials using analysis of variance (ANOVA).
compound,measurement,setting,value
"OCc1ccccc1O[C@@H]1O[C@H](CO)[C@@H](O)[C@H](O)[C@H]1O [Salicin, 2-(Hydroxymethyl)phenyl β-D-glucospyranoside]",Cutometer Extensibility Mean,Week 4,1.17
same,Cutometer Extensibility % Change,Week 4 vs Baseline,(1.8%)
same,Cutometer Extensibility Mean,Week 8,1.17
same,Cutometer Extensibility % Change,Week 8 vs Baseline,(1.3%)
same,Cutometer Extensibility Mean,Week 12,1.26
same,Cutometer Extensibility % Change,Week 12 vs Baseline,(9.6%)
